Results published in ChEMBL document CHEMBL1124942, “[D-Pen2,D-Pen5]enkephalin analogues with increased affinity and selectivity for delta opioid receptors” (J Med Chem, 1990).

How the values were obtained:
[1] = organism: Cavia porcellus; test: Inhibitory potency was evaluated using strips of guinea pig ileum (GPI) longitudinal muscle-myenteric plexus.; assay type: functional, organism-based
[2] = organism: Mus musculus; test: Inhibitory potency was evaluated using electrically induced smooth muscle contractions of mouse vas deferens (MVD).; assay type: functional, organism-based

## CC1(C)SSC(C)(C)[C@@H](NC(=O)[C@@H](N)Cc2ccc(O)cc2)C(=O)NCC(=O)N[C@@H](Cc2ccc(F)cc2)C(=O)N[C@H]1C(=O)O
[1]
  IC50: 5030 nM
[2]
  IC50: 0.84 nM

## CC1(C)SSC(C)(C)[C@@H](NC(=O)[C@@H](N)Cc2ccc(O)cc2)C(=O)NCC(=O)N[C@@H](Cc2ccc(I)cc2)C(=O)N[C@H]1C(=O)O
[1]
  IC50: 46100 nM
[2]
  IC50: 2.65 nM

## CC1(C)SSC(C)(C)[C@@H](NC(=O)[C@@H](N)Cc2ccc(O)cc2)C(=O)NCC(=O)N[C@@H](Cc2ccc(Br)cc2)C(=O)N[C@H]1C(=O)O
[1]
  IC50: 13400 nM
[2]
  IC50: 1.5 nM

## CC1(C)SSC(C)(C)[C@@H](NC(=O)[C@@H](N)Cc2ccc(O)cc2)C(=O)NCC(=O)N[C@@H](Cc2ccc(Cl)cc2)C(=O)N[C@H]1C(=O)O
[1]
  IC50: 4830 nM
[2]
  IC50: 0.89 nM
